Literature values as cited in patent publication US20110308985A1, “COMPOSITION OF A LIPOSOMAL GEL CONTAINING HYDROCORTISONE, ITS METABOLITES, PRECURSORS OR MIXTURES THEREOF AND THE USE THEREOF” (priority 2009, published 2011).

## C[C@]12CCC(=O)C=C1CC[C@@H]1[C@@H]2[C@@H](O)C[C@@]2(C)[C@H]1CC[C@]2(O)C(=O)CO [hydrocortisone, (11beta)-11,17,21-trihydroxypregn-4-ene-3,20-dione]
About 1 hour after intake of a tablet
  serum peak relative to the physiological morning peak: over 3 times
Oral administration form
  biological half-life: about 100 minutes
